This passage reports IC50 results from ChEMBL document CHEMBL1150447, “Nitrogen and sulfur analogues of the secoCI alkylating agent: Synthesis and cytotoxicity” (Bioorg Med Chem Lett, 1996).

Holding throughout (type): functional, cell-based
Assay [1] deals with UV4. The experiment in a line: Compound was evaluated for cytotoxicity against CHO UV4 cell lines for 4 hr at pH-7.4. The settings on record: Cricetulus griseus, UV4, 4 h.
For assay [2], the system named is EMT6. Nature of the assay: Compound was evaluated for cytotoxicity against murine mammary carcinoma EMT6 cell lines for 4 hr at pH-7.4. The conditions noted are these: Mus musculus, EMT6, 4 h.
Assay [3] deals with CHO-AA8. Nature of the assay: Compound was evaluated for cytotoxicity against CHO AA8 cell lines for 4 hr at pH-7.4. The conditions noted are these: Cricetulus griseus, CHO-AA8, 4 h.

On to `CNc1ccc2c(c1)N(C(=O)c1cc3cc(OC)c(OC)c(OC)c3[nH]1)CC2CCl` (configuration not stated), for which the IC50 in assay [1] was determined as 0.055 µM; in assay [2], 0.11 µM; in assay [3], 0.22 µM.
For `CS(=O)(=O)N1CC(CCl)c2ccc(S)cc21` (configuration not stated) the same measures were 124 µM, greater than 200 µM and greater than 200 µM.
For `CSc1ccc2c(c1)N(S(C)(=O)=O)CC2CCl` (configuration not stated), in that order: greater than 200 µM, greater than 200 µM and greater than 200 µM.
For `CNc1ccc2c(c1)N(S(C)(=O)=O)CC2CCl` (configuration not stated) the same measures were 4.1 µM, 13 µM and 50 µM.
For the molecule `COc1cc2cc(C(=O)N3CC(CCl)c4ccc(N(C)C)cc43)[nH]c2c(OC)c1OC` (configuration not stated), the figures for the IC50 in assay [1], in assay [2] and in assay [3] were 0.088 µM, 0.11 µM and 0.28 µM, respectively.
As to `COc1cc2cc(C(=O)N3CC(CCl)c4ccc(N)cc43)[nH]c2c(OC)c1OC` (configuration not stated), the IC50 amounted to 0.059 µM in assay [1] and 0.32 µM in assay [3].
`CS(=O)(=O)N1CC(CCl)c2ccc(O)cc21` (configuration not stated): the IC50 was determined as 1.9 µM in assay [1], 7.7 µM in assay [2] and 20 µM in assay [3].
For `CS(=O)(=O)N1CC(CCl)c2ccc(SSc3ccc4c(c3)N(S(C)(=O)=O)CC4CCl)cc21` (configuration not stated), in that order: greater than 50 µM, greater than 50 µM and greater than 50 µM.
For `CN(C)c1ccc2c(c1)N(S(C)(=O)=O)CC2CCl` (configuration not stated), in that order: 15 µM, 20 µM and 72 µM.
With `CS(=O)(=O)N1CC(CCl)c2ccc(N)cc21` (configuration not stated), the IC50 turned out to be 13 µM in assay [1], 33 µM in assay [2] and 158 µM in assay [3].
For `COc1cc2cc(C(=O)N3CC(CCl)c4ccc(O)cc43)[nH]c2c(OC)c1OC` (configuration not stated), in that order: 0.001 µM, 0.0022 µM and 0.0065 µM.

One may read the IC50 as the point on the concentration scale where inhibition reaches its midpoint.
